Here are results for 5 molecules from PMC4502414, “Transforming berberine into its intestine-absorbable form by the gut microbiota” (Scientific Reports, 2015).

Like-named read-outs stand apart in the source and are kept apart here.

The target of one data set is T1, nitroreductase (Escherichia coli, UniProt P38489).
T1 construct: purchased Sigma-Aldrich Co. (Shanghai, China); host or cells: Escherichia coli
In words: Nitroreductase-mediated BBR reduction, cell-free incubation. The class given is biochemical. To be noted: 2-IBA 100 μM, nitroreductase-containing cell-free incubation; read-out: inhibition rate of BBR-to-dhBBR conversion. The procedure: (§1) BBR was incubated with nitroreductase in intestinal bacteria cultures. The reaction mixture consisted of BBR (50 μg/ml), an NADPH-regenerating system and nitroreductase (5 μg/ml) in a final volume of 1 ml under the protection of N2. After incubation for 0, 2, 4, 6 and 12 h at 37 °C, the reaction was terminated by the addition of 1 ml of ice-cold acetonitrile. The samples were then extracted with 1 ml of ethyl acetate after adding 1 ml of 0.5 M sodium hydroxide solution. The organic phase was evaporated to dryness under a nitrogen flow in a water bath at 40 °C. The residue was dissolved with 200 μl of the mobile phase for further analysis. 2-Iodosobenzoic acid (2-IBA), a specific inhibitor of nitroreductase, was used to verify the role of bacterial nitroreductase.

The test system of data set [1] is mixture of rat gut bacteria. In words: BBR-to-dhBBR conversion in rat gut bacteria mixture with nitroreductase inhibitor. The class given is cell-based. To be noted: 2-IBA in BBR incubation with mixture of rat gut bacteria, 12 h. The procedure:
as §1

A short description of data set [2]: Plasma BBR in pseudo germ-free versus conventional rats after oral BBR. The class given is in vivo. To be noted: male, SD, rat, 200 mg/kg, oral BBR 200 mg/kg. The procedure:
(§2) Male SD rats (180–200 g) were orally treated with cefadroxil (100 mg/kg), terramycin (300 mg/kg) and erythromycin (300 mg/kg) twice a day for 3 days, and pharmacokinetic examination was performed 2 days after final administration. The colon contents of the rats were collected on the first and third days after the final treatment with antibiotics, and the germ-free status was confirmed by culturing fecal samples aerobically on a nutrient agar culture medium. Fecal samples from non-antibiotic-exposed rats served as control samples.
Before oral administration of a single dose of BBR (200 mg/kg), the PGF rats were fasted overnight with free access to water. Blood samples were collected from the posterior orbital venous plexus into a heparinized tube at 0, 0.25, 0.5, 1, 1.5, 2, 3, 4, 6, 8, and 12 h post-BBR treatment and then subjected to the procedure described above. Fecal samples were also collected at 0, 6, 12, 24, 36 and 48 h post-BBR treatment. The samples were stored at −20 °C for further analysis.

Details of data set [3]: method as in PMID 24174332. The settings on record: patients; cited from earlier work.
On the set-up of data set [4]: method as in PMID 21637946, PMID 12530470. The settings on record: cited from earlier work.
A short description of data set [5]: Plasma concentration of BBR in KK-Ay mice treated or untreated with antibiotics. The class given is in vivo. The settings on record: for Cmax at 14 day: KK-Ay, mouse, plasma, oral, 200 mg/kg, BBR 200 mg/kg qd. The procedure:
Blood samples of the mice in Groups 1 and 2 were collected into a heparinized tube 30 min after the oral administration of BBR. The samples were taken at days 1, 3, 6, 10 and 14 of the BBR treatment course. The samples were centrifuged at 10,000 g for 5 min, and the plasma was collected and stored at −80 °C before analysis.

Data set [6] in a line: 72-h cumulative fecal excretion of BBR and dhBBR in pseudo germ-free (PGF) and conventional rats. The class given is in vivo, SD rats. The settings on record: oral BBR 200 mg/kg. The procedure: as §2, with “samples. Before oral administration of a single dose of BBR (200 mg/kg), the PGF rats were fasted overnight with free access to water. […] The samples were stored at −20 °C for further analysis.” for “samples.”

The next data set has as its system 17 intestinal bacteria. Put plainly: Anti-bacterial test (MIC, broth microdilution). The class given is cell-based. To be noted: 24 h. The procedure:
Seventeen bacterial strains (see above) were used in the susceptibility test for BBR and dhBBR. The bacterial strains, which belong to different species of bacteria, were collected and identified as described above. The minimum inhibitory concentrations (MICs) of BBR and dhBBR after 24 h were determined through the broth microdilution method according to the CLSI guidelines. BBR and dhBBR were tested at a concentration range of 8 to 512 μg/ml. The MIC was defined as the lowest concentration of an agent that prevents turbidity. The experiment was repeated three times. All of the bacterial strains tested in this study (S. aureus ATCC 29213, E. faecalis ATCC 29212, E. coli ATCC 25922, S. aureus 08-43, S. epidermidis 12-12, E. faecium 13-01, E. faecalis 13-01, E. coli 06-05, K. pneumoniae 13-14, Ps. aeruginosa 13-10, A. baumannii 13-02, E. cloacae 13-12, and P. mirabilis 13-01) were facultative anaerobes, of which S. aureus ATCC 29213, E. faecalis ATCC 29212 and E. coli ATCC 25922 were standard strains from ATCC (USA) and served as quality controls. L. casei ATCC 334, L. acidophilus ATCC 4356, B. longum ATCC 15707, and B. breve ATCC 15700 were also tested in this anti-bacterial experiment. Ampicillin was used as the positive control.

Data set [7] is described as follows: Therapeutic effect of BBR on hyperglycemia and hyperlipidemia in KK-Ay mice with or without antibiotics. The class given is in vivo. An excerpt: KK-Ay mice with type 2 diabetes (female, 12 ± 1 weeks of age) were purchased from the Institute of Laboratory Animal Sciences, Chinese Academy of Medical Sciences (Beijing, China). […] Antibiotics at the doses described above were orally administered to KK-Ay mice for 3 days before the BBR treatment course, and the pseudo germ-free (PGF) state of the experimental mice was confirmed (see above). Four groups (n = 6 for each group) were used in the experiment: Group1, PGF KK-Ay mice orally treated with antibiotics (qd, at the dosage described above) plus BBR (200 mg/kg, qd) for 2 weeks; Group 2, untreated KK-Ay mice orally treated with BBR (200 mg/kg, qd) for 2 weeks; Group 3, PGF KK-Ay mice orally treated with antibiotics (qd, at a dosage identical to that for Group 1) for 2 weeks; Group 4, untreated KK-Ay mice. The antibiotics were administered in the morning and BBR was administered in the afternoon. All the animals were fed a high-fat diet. […] All of the mice were euthanized on day 14, and blood samples were taken to measure the fasting serum glucose (Glu), triglyceride (TG) and cholesterol (CHO) using Glu, TG and CHO reagent kits (Biosino Bio-Technology and Science INC, Beijing China), respectively. C57BL/6J mice were used as a wild-type reference. The body weights of the mice before, during and after treatments were recorded for 14 days.

The nature of data set [8]: Absorption of BBR and dhBBR in Caco-2 cells. The class given is in vitro ADME. To be noted: human. The procedure:
A Caco-2 cell assay was conducted using a method reported previously. […] To determine the rate of drug transport in the apical-to-basolateral direction, 200 μl of the compound working solution was added to the filter well (apical compartment), and 800 μl of HBSS was added to the receiver plate (basolateral compartment). Accordingly, to determine the rate of drug transport in the basolateral-to-apical direction, 800 μl of the compound working solution was added to each well of the receiver plate and 200 μl of HBSS was added to the filter well. The plates were incubated for 30 min at 37 °C with shaking at 150 rpm on a rotary shaker. At the end of the transport period, aliquots of 50 μl were removed directly from the apical and basolateral wells and transferred to wells of new plates. Four volumes of cold methanol containing internal standards were added into each well. The samples were centrifuged at 16,000 g for 15 min. Aliquots of 200 μl of the supernatant were used for the LC-MS/MS analysis.

A short description of data set [9]: Plasma pharmacokinetics after oral dhBBR or BBR in rats. To be noted: SD, rat, plasma, po, 200 mg/kg. The class given is in vivo, SD rats. The procedure: The plasma (100 μl) was precipitated with 100 μl of acetonitrile after addition of 10 μl of the internal standard. BBR served as a control in the study. The plasma concentrations of BBR and dhBBR were determined using LC-MS/MS 8040 and LC-MS/MS 8050.

Data set [10] can be described thus: Effect of ions on the dhBBR-to-BBR transformation. The settings on record: EDTA-2Na 10 mM. The procedure: dhBBR was added into the reaction solution containing FeCl3, CuCl2, ZnCl2, and NaCl (at concentrations of 0.033, 0.333 and 3.33 mM, respectively). Ethylenediaminetetraacetic acid disodium salt (EDTA-2Na, 10 mM), a chelating agent for metal ions, was used in the test.

The nature of data set [11]: Effect of heat inactivation and vitamin C on dhBBR-to-BBR transformation in rat small intestine homogenate. The settings on record: added to the reaction solution. The class given is in vitro ADME. The procedure: The rats (n = 3) were sacrificed to obtain fresh small intestine homogenate. The homogenate was then boiled for 2 min to inactivate all of the enzymes. After pre-incubation at 37 °C for 2 min, 5 μl of dhBBR (10 mM, dissolved in DMSO) was added into the inactivated homogenate, and fresh homogenate (active one) was used as a reference. The sample was mixed thoroughly and centrifuged at 16,000 g for 5 min. The supernatant was transferred into new tubes, treated with 500 μl of acetonitrile, and then centrifuged. Twenty-microliter aliquots were used for the HPLC analysis.
To examine the oxidative reaction, 100 μl of vitamin C was pre-incubated with the inactivated homogenate; the final concentrations of vitamin C were 95, 9.5 and 0.95 mM. The superoxide anion in the sample was detected with an O2^− ELISA kit (Beijing Biolab Co., Ltd., Beijing, China; lot: 201404) following the manufacturer’s instructions.

Details of data set [12]: method as in PMID 18285556. To be noted: cited from earlier work.

T1 sequence (P38489 whole entry): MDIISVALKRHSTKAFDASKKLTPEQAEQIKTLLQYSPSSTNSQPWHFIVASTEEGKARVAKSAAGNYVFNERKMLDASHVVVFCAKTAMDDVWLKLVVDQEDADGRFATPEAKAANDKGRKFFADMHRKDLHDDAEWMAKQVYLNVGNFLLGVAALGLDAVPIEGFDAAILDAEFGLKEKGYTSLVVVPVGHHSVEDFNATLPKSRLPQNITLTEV

For `O=Ic1ccccc1C(=O)O` [2-IBA, 2-iodosobenzoic acid], on nitroreductase, the inhibition at 100 µM was 88.3%. Moreover, the “inhibition of dhBBR production” value in data set [1] is 78.7%.

Consider `COc1ccc2cc3[n+](cc2c1OC)CCc1cc2c(cc1-3)OCO2` [BBR, berberine], for which the AUC(0-t) in [2] (conventional SD rat) stood at 70.9 ng·h/mL; in data set [2] (pseudo germ-free rat) it was 11.9 ng·h/mL; in data set [9] (oral BBR 200 mg/kg, Fig. 3c curve 2, read-out: AUC(0-t) of BBR in plasma), 54.6 ng·h/mL; in [9] (oral dhBBR 200 mg/kg, read-out: AUC(0-t) of BBR in blood), 262 ng·h/mL. Besides, the Cmax came out at 26 ng/mL in data set [2] (conventional SD rat); 6.92 ng/mL in data set [2] (pseudo germ-free rat); 16.1 ng/mL in data set [9] (oral BBR 200 mg/kg, Fig. 3c curve 2, read-out: Cmax of BBR in plasma); 52.5 ng/mL in [9] (oral dhBBR 200 mg/kg, read-out: Cmax of BBR in blood). Further, in data set [3], the “reduction of LDL-c level” value was 10–25%. In addition, in data set [3], the “reduction of fasting blood glucose level” value is listed as 21–36%. In addition, the “reduction of triglyceride level” value in data set [3] was 20–35%. For the same molecule, in data set [4], the water solubility entry was “poor water solubility”. For the same molecule, the Cmax at 14 day in [5] (day 14, mice treated with antibiotics (Group 1)) is 28.3 ± 3.41 ng/mL; in data set [5] (day 14, mice without antibiotics (Group 2)), 178 ± 57.6 ng/mL. Moreover, in data set [5] (day 14), the “Folds of Cmax [BBR / (BBR+Antibiotics)]” value is on record as 6.4 fold. The “Folds of Cmax, Group 2 over Group 1” value in [5] (throughout days 1, 3, 6, 10 and 14) was 3.5-6.5 fold. In addition, the “total BBR in feces over 72 h, % of the administered amount” value in data set [6] (PGF rats) was found to be 27.81%; in data set [6] (untreated (conventional) rats), 18.67%. Also, the MIC in the data set with 17 intestinal bacteria (span over 17 strains, read-out: minimal inhibitory concentration (MIC) on the 17 bacteria) was greater than 128 µg/mL; with 17 intestinal bacteria (read-out: MIC, most of the 17 tested strains) it was no less than 512 µg/mL. In addition, the “reduction of therapeutic efficacy of BBR on cholesterol by antibiotics” value in data set [7] (Group 1 vs Group 2, day 14) was found to be 44%. For the same molecule, the “reduction of therapeutic efficacy of BBR on triglyceride by antibiotics” value in data set [7] (Group 1 vs Group 2, day 14) was determined as 53%. The “reduction of therapeutic efficacy of BBR on fasting blood glucose by antibiotics” value in [7] (antibiotics before and during BBR (Group 1) vs BBR only (Group 2), day 14) was 42%. In addition, in data set [8] (Caco-2, pH 7.4, read-out: efflux ratio (ER)), the efflux ratio at 30 min, 5 μM came out at 32.4. Moreover, the Papp A→B at 30 min, 5 μM in data set [8] (pH 7.4, Caco-2, 5 μM, 30 min) is 0.38 ×10⁻⁶ cm/s.

As to `O=C([O-])CN(CCN(CC(=O)O)CC(=O)O)CC(=O)[O-].[Na+].[Na+]` [EDTA-2Na, Ethylenediaminetetraacetic acid disodium salt], the “reduction of dhBBR-to-BBR oxidization” value in data set [10] came to 5%.

In the case of `O=C1O[C@H]([C@@H](O)CO)C(O)=C1O` [vitamin C], the “effect on dhBBR-to-BBR reversion” value in data set [11] is “almost completely terminated”.

As to dihydroberberine sulfate, the “absorption in the intestine compared with BBR” value in data set [12] was “better absorption”.
